Legend:
[1] = target: T1, Adenosine A2 receptor (Rattus norvegicus, UniProt P29276+P30543)
Description: Binding affinity towards adenosine A2 receptor in rat striatal membranes using N-[3H]-ethyladenosin-5''-uronamide as radioligand

[2] = test system: Rattus norvegicus; experiment: Effect on urinary excretion potassium and sodium after oral administration of 12.5 mg/kg to rats(potassium and sodium excretion in control rat is 0.175+/-0.014); type: functional, Urine
[3] = test system: Rattus norvegicus; experiment: Urea nitrogen concentration measured after intraperitoneal administration of 10 mg/kg of compound to rats(vehicle 93.6+/-8.6); type: functional
[4] = test system: Rattus norvegicus; experiment: Oral diuretic activity was measured after oral administration of 12.5 mg/kg to rats(control volume is 0.94+/-0.03); type: functional, Urine
[5] = test system: Rattus norvegicus; experiment: Percent inhibition of Urea nitrogen by the compound given as ratio of UN value in treated to vehicle treated ones after intraperitoneal administration of 10 mg/kg of compound to rats(vehicle 93.6+/-8.6); type: functional; details: ip
[6] = test system: Rattus norvegicus; experiment: Ratio of urinary excretion value (urinary volume) in treated rats to that in control rats, at a peroral dose of 12.5 mg/Kg; type: functional, Urine
[7] = test system: Rattus norvegicus; experiment: Ratio of sodium ion/potassium ion concentration in treated rats to that in control rats, at a peroral dose of 12.5 mg/Kg; type: functional
[8] = test system: Rattus norvegicus; experiment: Serum creatinine concentration measured after intraperitoneal administration of 10 mg/kg of compound to rats(vehicle 2.89+/-0.30); type: functional
[9] = target: T1, Adenosine A2 receptor; remark: listed apart in the source
[10] = test system: Rattus norvegicus; experiment: Ratio of urinary excretion value (Na+ concentration) in treated rats to that in control rats, at a peroral dose of 6.25 mg/Kg; type: functional, Urine
[11] = test system: Rattus norvegicus; experiment: Ratio of urinary excretion value (urinary volume) in treated rats to that in control rats, at a peroral dose of 6.25 mg/Kg; type: functional, Urine
[12] = test system: Rattus norvegicus; experiment: Percent inhibition of serum creatinine by the compound given as ratio of Cr value in treated to vehicle treated ones after intraperitoneal administration of 10 mg/kg of compound to rats(vehicle 2.89+/-0.30); type: functional; details: ip
[13] = test system: Rattus norvegicus; experiment: Ratio of urinary excretion value (Na+ concentration) in treated rats to that in control rats, at a peroral dose of 12.5 mg/Kg; type: functional, Urine
[14] = test system: Rattus norvegicus; experiment: Ratio of urinary excretion value (urinary volume) in treated rats to that in control rats, at a peroral dose of 0.4 mg/Kg; type: functional, Urine
[15] = test system: Rattus norvegicus; experiment: Urea nitrogen concentration measured after intraperitoneal administration of 10 mg/kg of compound to rats(vehicle 129.1+/-14.5); type: functional
[16] = test system: Rattus norvegicus; experiment: Oral diuretic activity was measured after oral administration of 0.4 mg/kg to rats(control volume is 1.15+/-0.17); type: functional, Urine
[17] = test system: Rattus norvegicus; experiment: Ratio of urinary excretion value (Na+ concentration) in treated rats to that in control rats, at a peroral dose of 1.6 mg/Kg; type: functional, Urine
[18] = test system: Rattus norvegicus; experiment: Ratio of urinary excretion value (Na+ concentration) in treated rats to that in control rats, at a peroral dose of 0.4 mg/Kg; type: functional, Urine
[19] = test system: Rattus norvegicus; experiment: Percent inhibition of Urea nitrogen by the compound given as ratio of UN value in treated to vehicle treated ones after intraperitoneal administration of 10 mg/kg of compound to rats(vehicle 129.1+/-14.5); type: functional; details: ip
[20] = test system: Rattus norvegicus; experiment: Ratio of sodium ion/potassium ion concentration in treated rats to that in control rats, at a peroral dose of 1.6 mg/Kg; type: functional
[21] = test system: Rattus norvegicus; experiment: Urea nitrogen concentration measured after intraperitoneal administration of 1 mg/kg of compound to rats(vehicle 105.2+/-14.9); type: functional
[22] = test system: Rattus norvegicus; experiment: Ratio of urinary excretion value (urinary volume) in treated rats to that in control rats, at a peroral dose of 1.6 mg/Kg; type: functional, Urine
[23] = test system: Rattus norvegicus; experiment: Effect on urinary excretion potassium and sodium after oral administration of 1.6 mg/kg to rats(potassium and sodium excretion in control rat is 0.147+/-0.015); type: functional, Urine
[24] = test system: Rattus norvegicus; experiment: Percent inhibition of Urea nitrogen by the compound given as ratio of UN value in treated to vehicle treated ones after intraperitoneal administration of 1 mg/kg of compound to rats(vehicle 105.2+/-14.9); type: functional; details: ip
[25] = test system: Rattus norvegicus; experiment: Oral diuretic activity was measured after oral administration of 1.6 mg/kg to rats(control volume is 0.96+/-0.09); type: functional, Urine
[26] = test system: Rattus norvegicus; experiment: Effect on urinary excretion potassium and sodium after oral administration of 0.4 mg/kg to rats(potassium and sodium excretion in control rat is 0.191+/-0.020); type: functional, Urine
[27] = test system: Rattus norvegicus; experiment: Percent inhibition of serum creatinine by the compound given as ratio of Cr value in treated to vehicle treated ones after intraperitoneal administration of 1 mg/kg of compound to rats(vehicle 3.62+/-0.52); type: functional; details: ip
[28] = test system: Rattus norvegicus; experiment: Serum creatinine concentration measured after intraperitoneal administration of 10 mg/kg of compound to rats(vehicle 3.93+/-0.45); type: functional
[29] = test system: Rattus norvegicus; experiment: Ratio of sodium ion/potassium ion concentration in treated rats to that in control rats, at a peroral dose of 0.4 mg/Kg; type: functional
[30] = test system: Rattus norvegicus; experiment: Percent inhibition of serum creatinine by the compound given as ratio of Cr value in treated to vehicle treated ones after intraperitoneal administration of 10 mg/kg of compound to rats(vehicle 3.93+/-0.45); type: functional; details: ip
[31] = test system: Rattus norvegicus; experiment: Serum creatinine concentration measured after intraperitoneal administration of 1 mg/kg of compound to rats(vehicle 3.62+/-0.52); type: functional
[32] = test system: Rattus norvegicus; experiment: Ratio of urinary excretion value (Na+ concentration) in treated rats to that in control rats, at a peroral dose of 25 mg/Kg; type: functional, Urine
[33] = test system: Rattus norvegicus; experiment: Oral diuretic activity was measured after oral administration of 25 mg/kg to rats(control volume is 0.89+/-0.06); type: functional, Urine
[34] = target: T2, Adenosine receptor A1 (Cavia porcellus, UniProt P47745)
T2 sequence (P47745 whole entry): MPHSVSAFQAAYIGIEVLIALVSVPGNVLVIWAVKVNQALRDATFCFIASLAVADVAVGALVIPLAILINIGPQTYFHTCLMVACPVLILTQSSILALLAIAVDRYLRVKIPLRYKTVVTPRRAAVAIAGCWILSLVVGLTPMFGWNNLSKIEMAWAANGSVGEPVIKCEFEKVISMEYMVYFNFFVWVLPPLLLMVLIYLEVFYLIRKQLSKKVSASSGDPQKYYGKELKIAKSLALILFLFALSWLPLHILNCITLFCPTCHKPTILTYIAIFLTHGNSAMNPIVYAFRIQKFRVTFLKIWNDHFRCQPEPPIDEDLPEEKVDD
Description: Binding affinity against adenosine A1 receptor in guinea pig forebrain membranes using N6-[3H]cyclohexyladenosine as radioligand

[35] = test system: Rattus norvegicus; experiment: Percent inhibition of serum creatinine by the compound given as ratio of Cr value in treated to vehicle treated ones after intraperitoneal administration of 10 mg/kg of compound to rats(vehicle 4.98+/-0.08); type: functional; details: ip
[36] = test system: Rattus norvegicus; experiment: Percent inhibition of Urea nitrogen by the compound given as ratio of UN value in treated to vehicle treated ones after intraperitoneal administration of 10 mg/kg of compound to rats(vehicle 150.7+/-3.4); type: functional; details: ip
[37] = test system: Rattus norvegicus; experiment: Ratio of sodium ion/potassium ion concentration in treated rats to that in control rats, at a peroral dose of 25 mg/Kg; type: functional
[38] = test system: Rattus norvegicus; experiment: Effect on urinary excretion potassium and sodium after oral administration of 25 mg/kg to rats(potassium and sodium excretion in control rat is […]+/-[…]); type: functional, Urine
[39] = test system: Rattus norvegicus; experiment: Serum creatinine concentration measured after intraperitoneal administration of 10 mg/kg of compound to rats(vehicle 4.98+/-0.08); type: functional
[40] = test system: Rattus norvegicus; experiment: Urea nitrogen concentration measured after intraperitoneal administration of 10 mg/kg of compound to rats(vehicle 150.7+/-3.4); type: functional
[41] = test system: Rattus norvegicus; experiment: Ratio of urinary excretion value (urinary volume) in treated rats to that in control rats, at a peroral dose of 25 mg/Kg; type: functional, Urine

## CCCn1c(=O)c2nc(-c3ccc(S(=O)(=O)N(C)CCN(C)C)cc3)[nH]c2n(CCC)c1=O
[1]
  Ki: 15.5 nM
[2]
  Na: 0.21 m equiv 6hr-1 100g-1
[3]
  UN: 62.6 mg/dL
[4]
  Urine volume: 1.54 ml 6hr-1 100g-1
[5]
  inhibition in vivo at 10 mg/kg: 33%
[6]
  T/C: 1.64
[7]
  Na+/K+: 1.56
[8]
  Cr: 2.31 mg/dL
[9]
  Ki: 26 nM
[10]
  T/C: 1.06
[11]
  T/C: 1.17
[12]
  inhibition in vivo at 10 mg/kg: 20%
[13]
  T/C: 1.78

## CCCCn1c(=O)c2nc(C(C3CC3)C3CC3)[nH]c2n(CCCC)c1=O
[14]
  T/C: 1.08
[15]
  UN: 81.1 mg/dL
[16]
  Urine volume: 1.24 ml 6hr-1 100g-1
[17]
  T/C: 1.91
[18]
  T/C: 1.44
[19]
  inhibition in vivo at 10 mg/kg: 37%
[20]
  Na+/K+: 1.66
[21]
  UN: 101.1 mg/dL
[9]
  Ki: 440 nM
[22]
  T/C: 1.66
[23]
  Na: 0.282 m equiv 6hr-1 100g-1
[24]
  inhibition in vivo at 1 mg/kg: 4%
[25]
  Urine volume: 1.59 ml 6hr-1 100g-1
[26]
  Na: 0.276 m equiv 6hr-1 100g-1
[27]
  inhibition in vivo at 1 mg/kg: 0%
[28]
  Cr: 2.3 mg/dL
[29]
  Na+/K+: 1.45
[30]
  inhibition in vivo at 10 mg/kg: 41%
[31]
  Cr: 3.63 mg/dL

## CCCn1c(=O)c2c(nc(C(C3CC3)C3CC3)n2CC(=O)O)n(CCC)c1=O
[32]
  T/C: 1.14
[33]
  Urine volume: 1.02 ml 6hr-1 100g-1
[34]
  Ki: 6.9 µM
[35]
  inhibition in vivo at 10 mg/kg: 4%
[36]
  inhibition in vivo at 10 mg/kg: 3%
[37]
  Na+/K+: 0.95
[38]
  Na: 0.185 m equiv 6hr-1 100g-1
[39]
  Cr: 4.79 mg/dL
[9]
  Ki: > 100000 nM
[40]
  UN: 145.5 mg/dL
[41]
  T/C: 1.15

## Nc1nc2ccc(Cl)cc2c2nc(-c3ccco3)nn12 [CGS-15943]
[1]
  Ki: 3.3 nM
[32]
  T/C: 1.46
[37]
  Na+/K+: 1.07
[9]
  Ki: 0.73 nM
[41]
  T/C: 1.02

— ChEMBL document CHEMBL1125524, “Adenosine A1 antagonists. 2. Structure-activity relationships on diuretic activities and protective effects against acute renal failure” (J Med Chem, 1992)
